Patent US11547697B2, “Heterocyclic compounds and uses thereof” (MILLENNIUM PHARMACEUTICALS, INC., priority 2009, dated 2023)
Where two headings read alike, the source gives them in different places.

Legend:
p110α/p85α = p110α/p85α (Homo sapiens (Human), UniProt P42336); assay: PI 3-Kinase (human) HTRF assay, p110α/p85α; type: biochemical
p110γ = p110γ (Homo sapiens (Human), UniProt P48736); assay: PI 3-Kinase (human) HTRF assay, p110γ; type: biochemical
[1] = in vitro, read-out: PI3K α IC50
[2] = in vitro, read-out: PI3K γ IC50

Sequence of p110γ (P48736 whole entry): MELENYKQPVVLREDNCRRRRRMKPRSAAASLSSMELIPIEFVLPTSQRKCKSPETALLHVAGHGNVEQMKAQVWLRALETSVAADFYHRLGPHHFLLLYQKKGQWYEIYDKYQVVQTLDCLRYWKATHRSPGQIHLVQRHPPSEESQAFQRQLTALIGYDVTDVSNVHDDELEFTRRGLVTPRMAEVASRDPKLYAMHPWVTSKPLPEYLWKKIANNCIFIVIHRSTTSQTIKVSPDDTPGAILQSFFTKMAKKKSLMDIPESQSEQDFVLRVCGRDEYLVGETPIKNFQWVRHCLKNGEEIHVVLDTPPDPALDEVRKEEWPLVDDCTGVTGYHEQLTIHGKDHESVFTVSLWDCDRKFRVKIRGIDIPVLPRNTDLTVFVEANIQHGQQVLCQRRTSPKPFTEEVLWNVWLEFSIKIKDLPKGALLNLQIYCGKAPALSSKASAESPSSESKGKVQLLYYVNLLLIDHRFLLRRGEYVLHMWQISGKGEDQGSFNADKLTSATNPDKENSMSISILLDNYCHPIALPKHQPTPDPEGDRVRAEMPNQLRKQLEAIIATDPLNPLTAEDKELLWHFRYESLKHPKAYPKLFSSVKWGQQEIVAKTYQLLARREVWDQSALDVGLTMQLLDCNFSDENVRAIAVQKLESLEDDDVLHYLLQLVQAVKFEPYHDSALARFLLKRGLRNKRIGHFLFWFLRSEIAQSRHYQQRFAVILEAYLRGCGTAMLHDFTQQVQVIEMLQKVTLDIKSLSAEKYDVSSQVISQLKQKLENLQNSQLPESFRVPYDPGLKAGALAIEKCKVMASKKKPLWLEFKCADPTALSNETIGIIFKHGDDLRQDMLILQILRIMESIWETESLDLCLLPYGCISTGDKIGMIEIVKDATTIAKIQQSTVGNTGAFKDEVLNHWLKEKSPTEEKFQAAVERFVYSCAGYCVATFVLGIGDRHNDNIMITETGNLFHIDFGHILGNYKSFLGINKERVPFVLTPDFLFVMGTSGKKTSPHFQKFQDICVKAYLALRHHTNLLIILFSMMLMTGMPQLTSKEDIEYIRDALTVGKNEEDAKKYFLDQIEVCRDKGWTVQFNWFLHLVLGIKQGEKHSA
Sequence of p110α/p85α (P42336 whole entry): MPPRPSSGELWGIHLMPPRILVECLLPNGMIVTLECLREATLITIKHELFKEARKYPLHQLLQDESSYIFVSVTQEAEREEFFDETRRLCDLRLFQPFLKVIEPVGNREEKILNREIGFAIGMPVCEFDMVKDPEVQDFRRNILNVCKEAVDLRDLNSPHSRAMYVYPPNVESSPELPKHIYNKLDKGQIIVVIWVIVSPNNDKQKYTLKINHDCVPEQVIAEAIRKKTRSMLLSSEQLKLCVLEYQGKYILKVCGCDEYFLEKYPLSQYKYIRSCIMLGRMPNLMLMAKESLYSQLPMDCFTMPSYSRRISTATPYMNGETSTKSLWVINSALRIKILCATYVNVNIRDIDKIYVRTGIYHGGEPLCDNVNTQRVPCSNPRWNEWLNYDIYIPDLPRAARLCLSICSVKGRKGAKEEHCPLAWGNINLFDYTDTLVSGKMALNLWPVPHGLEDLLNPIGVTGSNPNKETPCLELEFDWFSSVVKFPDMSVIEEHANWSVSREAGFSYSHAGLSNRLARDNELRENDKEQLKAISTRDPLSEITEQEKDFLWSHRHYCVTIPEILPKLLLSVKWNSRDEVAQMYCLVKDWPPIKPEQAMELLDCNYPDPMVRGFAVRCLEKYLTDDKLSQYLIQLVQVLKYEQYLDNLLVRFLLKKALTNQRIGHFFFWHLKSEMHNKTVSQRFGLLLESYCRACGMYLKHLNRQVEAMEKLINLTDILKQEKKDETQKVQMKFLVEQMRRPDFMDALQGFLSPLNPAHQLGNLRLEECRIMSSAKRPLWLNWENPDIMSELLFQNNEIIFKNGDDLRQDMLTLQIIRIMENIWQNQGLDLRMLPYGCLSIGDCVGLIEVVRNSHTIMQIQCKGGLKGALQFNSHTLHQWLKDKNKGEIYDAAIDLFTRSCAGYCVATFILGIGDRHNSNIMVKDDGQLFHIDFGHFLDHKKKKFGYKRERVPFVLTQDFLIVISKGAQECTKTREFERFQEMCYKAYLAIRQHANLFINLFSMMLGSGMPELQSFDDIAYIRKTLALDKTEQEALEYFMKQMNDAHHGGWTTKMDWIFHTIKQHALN
Sequence of p110α/p85α (P27986 whole entry partner): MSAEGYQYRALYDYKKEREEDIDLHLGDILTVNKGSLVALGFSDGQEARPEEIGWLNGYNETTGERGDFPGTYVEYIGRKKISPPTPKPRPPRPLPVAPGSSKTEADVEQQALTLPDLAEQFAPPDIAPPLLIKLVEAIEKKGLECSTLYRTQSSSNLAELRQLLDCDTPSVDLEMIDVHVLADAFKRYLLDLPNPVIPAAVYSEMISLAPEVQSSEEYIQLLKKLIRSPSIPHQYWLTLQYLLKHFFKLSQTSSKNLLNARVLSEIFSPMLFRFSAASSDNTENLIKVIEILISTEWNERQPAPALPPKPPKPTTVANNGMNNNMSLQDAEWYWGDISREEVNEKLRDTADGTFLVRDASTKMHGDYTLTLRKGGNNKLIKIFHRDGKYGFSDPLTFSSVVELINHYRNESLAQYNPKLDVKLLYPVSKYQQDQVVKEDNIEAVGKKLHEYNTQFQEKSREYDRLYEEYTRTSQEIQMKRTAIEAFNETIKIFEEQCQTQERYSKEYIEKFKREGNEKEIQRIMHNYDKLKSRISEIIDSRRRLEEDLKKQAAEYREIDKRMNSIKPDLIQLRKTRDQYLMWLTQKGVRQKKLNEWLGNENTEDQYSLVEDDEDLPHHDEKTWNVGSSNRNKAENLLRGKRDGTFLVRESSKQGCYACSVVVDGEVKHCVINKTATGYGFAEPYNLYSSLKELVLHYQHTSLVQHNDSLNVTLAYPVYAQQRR

IC50 (p110α/p85α; read-out: PI3K α IC50) [µM] | IC50 (p110α/p85α; [1]) [µM] | Structure (SMILES) | also measured
< 10 | – | Nc1ncnc2ccc(-c3ccc4nccc(-c5ccncc5)c4c3)cc12 [compound 8] | IC50 (p110γ; read-out: PI3K γ IC50): < 1 µM
< 10 | – | Nc1nc2cc(-c3cc4nccc(-c5ccncc5)c4s3)ccc2o1 [compound 14] | IC50 (p110γ; read-out: PI3K γ IC50): < 10 µM
< 10 | – | Nc1noc2ccc(-c3ccc4nccc(-c5ccncc5)c4c3)cc12 [compound 18] | IC50 (p110γ; read-out: PI3K γ IC50): < 10 µM
< 10 | – | Nc1nc2cc(-c3c[nH]c4nccc(-c5ccncc5)c34)ccc2o1 [compound 25] | IC50 (p110γ; read-out: PI3K γ IC50): < 10 µM
< 10 | – | Nc1nc2cc(-c3ccc4nccc(NC5CCOCC5)c4c3)ccc2o1 [compound 32] | IC50 (p110γ; read-out: PI3K γ IC50): < 10 µM
< 10 | – | Nc1nc2cc(-c3ccc4ncn(C5CCOCC5)c4c3)ccc2o1 [compound 48] | –
< 10 | – | Nc1nc2cc(-c3ccc4ncc(N5CCOCC5)n4c3)ccc2o1 [compound 53] | –
< 1 | – | Nc1nc2cc(-c3ccc4ncn(C5CCOCC5)c(=O)c4c3)ccc2o1 [compound 55] | –
< 10 | – | Nc1nc2ccc(-c3ccc4ncn(C5CCOCC5)c(=O)c4c3)cc2o1 [compound 63] | –
< 10 | – | CC(=O)N1CCC(n2cnc3ccc(-c4ccc5oc(N)nc5c4)cc3c2=O)CC1 [compound 66] | –
< 1 | – | CS(=O)(=O)N1CCC(n2cnc3ccc(-c4ccc5oc(N)nc5c4)cc3c2=O)CC1 [compound 67] | –
< 10 | – | CN1CCN(c2nc3cc(-c4ccc5oc(N)nc5c4)ccc3c(=O)n2C)CC1 [compound 79] | –
< 1 | – | Cn1c(N2CCOCC2)nc2cc(-c3ccc4oc(N)nc4c3)ccc2c1=O [compound 80] | –
< 10 | – | Nc1nc2cc(-c3ccc4ncc(C(=O)N5CCOCC5)cc4c3)ccc2o1 [compound 97] | –
< 0.1 | – | Nc1nc2cc(-c3ccc4ncc(N5CCS(=O)(=O)CC5)nc4c3)ccc2o1 [compound 98] | IC50 (p110γ; read-out: PI3K γ IC50): < 0.1 µM
< 10 | – | CN1CCN(C(=O)c2cnc3ccc(-c4ccc5oc(N)nc5c4)nn23)CC1 [compound 104] | IC50 (p110γ; read-out: PI3K γ IC50): < 10 µM
< 10 | – | C[C@@H]1CN(C(=O)c2cnc3ccc(-c4ccc5oc(N)nc5c4)cn23)C[C@H](C)O1 [compound 106] | IC50 (p110γ; read-out: PI3K γ IC50): < 10 µM
< 1 | – | Nc1nc2cc(-c3ccc4ncc(C(=O)N5CCS(=O)(=O)CC5)n4c3)ccc2o1 [compound 107] | IC50 (p110γ; read-out: PI3K γ IC50): < 10 µM
< 0.1 | – | Nc1nc2ccc(-c3ccc4ncc(N5CCOCC5)nc4c3)cc2s1 [compound 114] | IC50 (p110γ; read-out: PI3K γ IC50): < 1 µM
< 10 | – | CN1CCN(C(=O)c2cnc3cnc(-c4ccc5oc(N)nc5c4)cn23)CC1 [compound 123] | –
< 1 | – | C[C@@H]1CN(c2cnc3ccc(-c4ccc5oc(N)nc5c4)cc3n2)C[C@H](C)O1 [compound 132] | IC50 (p110γ; read-out: PI3K γ IC50): < 10 µM
< 1 | – | CCN1CCN(C(=O)c2cnc3ccc(-c4ccc5oc(N)nc5c4)cn23)CC1 [compound 141] | IC50 (p110γ; read-out: PI3K γ IC50): < 10 µM
< 10 | – | CC1CN(C(=O)c2cnc3ccc(-c4ccc5oc(N)nc5c4)cn23)CC(C)N1 (centres unmarked) [compound 142] | –
< 1 | – | Nc1nc2cc(-c3ccc4ncc(-c5ccnc(N6CCOCC6)c5)nc4c3)ccc2o1 [compound 150] | –
< 10 | – | CN1CCN(C(=O)c2cnc3ccc(-c4ccc5oc(N)nc5c4)cc3n2)CC1 [compound 157] | –
< 10 | – | Nc1nc2cc(-c3ccc4ncc(C(=O)N5CCOCC5)nc4c3)ccc2o1 [compound 158] | –
< 1 | – | Nc1nc2cc(-c3ccc4ncc(C(=O)N5CCC(O)CC5)n4c3)ccc2o1 [compound 162] | IC50 (p110γ; read-out: PI3K γ IC50): < 10 µM

IC50 (p110α/p85α; read-out: PI3K α IC50) [µM] | IC50 (p110α/p85α; [1]) [µM] | Structure (SMILES) | also measured
< 10 | – | Nc1nc2cc(-c3ccc4ncc(-c5ccc(N6CCOCC6)nc5)nc4c3)ccc2o1 [compound 167] | –
< 0.1 | – | Nc1nc2cc(-c3ccc4ncc(N5CCCCC5)nc4c3)ccc2o1 [compound 175] | IC50 (p110γ; read-out: PI3K γ IC50): < 10 µM
< 0.1 | – | Cc1cn(-c2cnc3ccc(-c4ccc5oc(N)nc5c4)cc3n2)cn1 [compound 177] | IC50 (p110γ; read-out: PI3K γ IC50): < 1 µM
< 1 | – | Nc1nc2cc(-c3ccc4ncc(-c5ccccc5)nc4c3)ccc2o1 [compound 180] | –
< 1 | – | Cc1ncccc1-c1cnc2ccc(-c3ccc4oc(N)nc4c3)cc2n1 [compound 185] | –
< 0.1 | – | Cc1ccc(-c2cnc3ccc(-c4ccc5oc(N)nc5c4)cc3n2)cn1 [compound 194] | IC50 (p110γ; read-out: PI3K γ IC50): < 0.1 µM
– | < 0.1 | Nc1nc2cc(-c3ccc4ncn(C5CCC5)c(=O)c4c3)ccc2o1 [compound 205] | –
– | < 0.1 | CC(C)n1cnc2ccc(-c3ccc4oc(N)nc4c3)cc2c1=O [compound 206] | IC50 (p110γ; [2]): < 10 µM
– | < 1 | Nc1ncc(-c2cnc3ccc(-c4ccc5oc(N)nc5c4)cc3n2)cn1 [compound 210] | –
– | < 0.1 | Cc1ccn(C2CCN(c3cnc4ccc(-c5ccc6oc(N)nc6c5)cc4n3)CC2)n1 [compound 223] | IC50 (p110γ; [2]): < 1 µM
– | < 10 | CCN(CC)CCn1cnc2ccc(-c3ccc4oc(N)nc4c3)cc2c1=O [compound 224] | –
– | – | Nc1ncc(-c2ccc3oc(N)nc3c2)cn1 [compound 233] | IC50 (p110γ; [2]): < 10 µM
– | – | CC(=O)Nc1nc2cc(-c3ccc4oc(N)nc4c3)ccc2s1 [compound 250] | IC50 (p110γ; [2]): < 0.1 µM
– | < 1 | Nc1nc2cc(-c3ccc4ncn(C5CC5)c(=O)c4c3)ccc2o1 [compound 254] | IC50 (p110γ; [2]): < 1 µM
– | < 10 | Nc1nc2cc(-c3ccc4ncn(C5CCCC5)c(=O)c4c3)ccc2o1 [compound 256] | –
– | < 1 | NC(=O)[C@@H]1CCCN1C(=O)c1cnc2ccc(-c3ccc4oc(N)nc4c3)cn12 [compound 259] | IC50 (p110γ; [2]): < 10 µM
– | < 1 | NC(=O)[C@H]1CCCN1C(=O)c1cnc2ccc(-c3ccc4oc(N)nc4c3)cn12 [compound 260] | IC50 (p110γ; [2]): < 10 µM
– | < 10 | CN1CCN(CCn2cnc3ccc(-c4ccc5oc(N)nc5c4)cc3c2=O)CC1 [compound 280] | –
– | < 1 | Nc1nc2cc(-c3ccc4ncn(CCCN5CCOCC5)c(=O)c4c3)ccc2o1 [compound 290] | –
– | < 1 | CN1CCN(CCCn2cnc3ccc(-c4ccc5oc(N)nc5c4)cc3c2=O)CC1 [compound 291] | –
– | < 10 | CN(C)CCn1cnc2ccc(-c3ccc4oc(N)nc4c3)cc2c1=O [compound 292] | –
– | < 1 | Cc1ccn(C2CCN(C(=O)c3cnc4ccc(-c5ccc6oc(N)nc6c5)cn34)CC2)n1 [compound 297] | IC50 (p110γ; [2]): < 10 µM
– | < 1 | CN(C)C1CCN(C(=O)c2cnc3ccc(-c4ccc5oc(N)nc5c4)cn23)CC1 [compound 304] | –
– | < 10 | Nc1nc2ccc(-c3ccc4nnc(C(=O)N5CCCC5)n4c3)cc2o1 [compound 305] | –
– | < 1 | Cc1nc(NC(=O)N2CCC[C@H]2C(N)=O)sc1-c1ccc2oc(N)nc2c1 [compound 311] | –
– | < 0.1 | Nc1nc2cc(-c3ccc4ncc(N5CCC(n6cccn6)CC5)nc4c3)ccc2o1 [compound 337] | IC50 (p110γ; [2]): < 1 µM
– | < 1 | Nc1nc2cc(-c3ccc4ncc(C(=O)N5CC5)n4c3)ccc2o1 [compound 340] | IC50 (p110γ; [2]): < 1 µM

IC50 (p110α/p85α; read-out: PI3K α IC50) [µM] | IC50 (p110α/p85α; [1]) [µM] | Structure (SMILES) | also measured
– | < 10 | Cc1cc2oc(N)nc2cc1-c1ccc2ncc(N3CC(N4CCOCC4)C3)nc2c1 [compound 353] | –
– | < 10 | Nc1nc2cc(-c3ccc4ncc(C(=O)N5CCOCC5)n4c3)c(Cl)cc2o1 [compound 370] | –
– | < 1 | Cc1c(-c2ccc3oc(N)nc3c2)ccc2ncc(N3CC(N4CCOCC4)C3)nc12 [compound 383] | –
– | < 0.1 | Cc1c(-c2ccc3oc(N)nc3c2)ccc2ncc(N3CC(N4CCNCC4)C3)nc12 [compound 386] | –
– | < 10 | CCN1CCN(c2cnc3ccc(-c4ccc5oc(N)nc5c4)cc3n2)C(=O)C1 [compound 391] | –
– | < 10 | Nc1nc2cc(-c3ccc4ncc(N5CCN(CC6CC6)CC5=O)nc4c3)ccc2o1 [compound 393] | –
– | – | CC(=O)Nc1cc2ccc(-c3cc(F)c4oc(N)nc4c3)cn2n1 [compound 401] | IC50 (p110γ; read-out: PI3K γ In Vitro IC50): < 10 µM
– | – | C[C@H]1CN(c2cc3cc(-c4ccc5oc(N)nc5c4)ccc3nc2N)CCN1 [compound 403] | IC50 (p110α/p85α; read-out: PI3K α In Vitro IC50): < 10 µM
– | – | O=C(c1cnc2ccc(-c3ccc4oc(NC5CC5)nc4c3)cn12)N1CCOCC1 [compound 409] | IC50 (p110α/p85α; read-out: PI3K α In Vitro IC50): < 10 µM
– | – | Nc1ncc(-c2ccc3ncc(C(=O)N4CCOCC4)n3c2)cc1C(F)(F)F [compound 410] | IC50 (p110α/p85α; read-out: PI3K α In Vitro IC50): < 10 µM
– | – | Nc1nc2nc(-c3ccc4ncc(C(=O)N5CCOCC5)n4c3)ccc2o1 [compound 412] | IC50 (p110α/p85α; read-out: PI3K α In Vitro IC50): < 10 µM
– | – | COc1ncc(-c2ccc3ncc(C(=O)N4CCOCC4)n3c2)cc1N [compound 414] | IC50 (p110α/p85α; read-out: PI3K α In Vitro IC50): < 10 µM
– | – | Nc1cc(-c2ccc3ncc(C(=O)N4CCOCC4)n3c2)cnc1Cl [compound 415] | IC50 (p110α/p85α; read-out: PI3K α In Vitro IC50): < 10 µM
– | – | Nc1nc2cc(-c3cc(F)c4ncc(C(=O)N5CCOCC5)n4c3)ccc2o1 [compound 438] | IC50 (p110α/p85α; read-out: PI3K α In Vitro IC50): < 10 µM
– | – | Nc1nc2ccc(-c3cc(F)c4ncc(C(=O)N5CCOCC5)n4c3)cc2o1 [compound 439] | IC50 (p110α/p85α; read-out: PI3K α In Vitro IC50): < 10 µM
– | – | COc1ccc(-c2ccc3ncc(C(=O)N4CCOCC4)n3c2)cc1S(=O)(=O)Nc1ccccc1 [compound 444] | IC50 (p110α/p85α; read-out: PI3K α In Vitro IC50): < 10 µM
– | – | CN1CCN(n2cnc3ccc(-c4ccc5oc(N)nc5c4)cc3c2=O)CC1 [compound 446] | IC50 (p110α/p85α; read-out: PI3K α In Vitro IC50): < 1 µM
– | – | O=C(c1cnc2ccc(-c3cncc(S(=O)(=O)Nc4ccccc4)c3)cn12)N1CCOCC1 [compound 447] | IC50 (p110α/p85α; read-out: PI3K α In Vitro IC50): < 10 µM
– | – | CNS(=O)(=O)c1cncc(-c2ccc3ncc(C(=O)N4CCOCC4)n3c2)c1 [compound 450] | IC50 (p110α/p85α; read-out: PI3K α In Vitro IC50): < 10 µM
– | – | CS(=O)(=O)Nc1cc(-c2ccc3ncc(C(=O)N4CCOCC4)n3c2)ccc1Cl [compound 460] | IC50 (p110α/p85α; read-out: PI3K α In Vitro IC50): < 10 µM
– | – | Nc1nsc2c(-c3ccc4ncc(C(=O)N5CCOCC5)n4c3)cccc12 [compound 474] | IC50 (p110α/p85α; read-out: PI3K α In Vitro IC50): < 10 µM
– | – | Nc1nc2cccc(-c3ccc4ncc(C(=O)N5CCOCC5)n4c3)c2s1 [compound 485] | IC50 (p110α/p85α; read-out: PI3K α In Vitro IC50): < 10 µM
– | – | Nc1nsc2cc(-c3ccc4ncc(C(=O)N5CCOCC5)n4c3)ccc12 [compound 489] | IC50 (p110α/p85α; read-out: PI3K α In Vitro IC50): < 10 µM
– | – | O=C(c1cnc2ccc(-c3cccc4[nH]ncc34)cn12)N1CCOCC1 [compound 506] | IC50 (p110α/p85α; read-out: PI3K α In Vitro IC50): < 0.1 µM
– | – | CC1(C)COCCN1C(=O)c1cnc2ccc(-c3ccc4oc(N)nc4c3)cn12 [compound 514] | IC50 (p110α/p85α; read-out: PI3K α In Vitro IC50): < 1 µM
– | – | O=C(c1cnc2ccc(-c3cnc(Cl)c4[nH]ncc34)cn12)N1CCOCC1 [compound 516] | IC50 (p110α/p85α; read-out: PI3K α In Vitro IC50): < 1 µM
